Assay results taken from EPA's ToxValDB 9.5 (doi:10.2903/j.efsa.2008.170r).

Assays:
Bird = details: chronic/long-term; mortality
Daphnia magna = details: chronic/long-term
Rattus norvegicus = details: acute; mortality
Apis mellifera = details: acute; dermal; mortality
Canidae = details: chronic; duration: 1 years; oral; Dog Other; body weight
Typhlodromus pyri = details: not reported; mortality

## CC(=O)O.CC1CN(C2CCCCCCCCCCC2)CC(C)O1 (configuration not stated) [Dodemorph acetate]
Bird
  LD50: 9.4 mg/kg-day
Daphnia magna
  NOEC: 0.08 mg/L
Rattus norvegicus
  LD50: 4100 mg/kg
Oncorhynchus mykiss; acute, duration: 96 hours, mortality
  LC50: 1.23 µg/mL
Oncorhynchus mykiss; chronic/long-term, duration: 28 days, growth
  NOEC: 0.1 mg/L
Oryctolagus sp.; acute, mortality
  LD50: 21 mg/kg-day
Oryctolagus sp.; developmental, development
  NOAEL: 40 mg/kg-day
Apis mellifera
  LD50: > 76.6 µg/piece
Tagia sp.; acute, duration: 14 days, mortality
  LC50: > 824 mg/kg
Tagia sp.; chronic/long-term, duration: 56 days, other
  NOEC: 103 mg/kg
Canidae
  NOAEL: 10 mg/kg-day
Typhlodromus pyri
  LEL: 660 g/ha
